In EPA's ToxRefDB 2:

Columns and labels:
[1] = tested on: rat; settings: Prenatal developmental toxicity study, sprague dawley, Oral, Gavage/Intubation, dose end: 15 GD
[2] = tested on: rat; settings: Subchronic dermal toxicity, sprague dawley, Topical, dose end: 13 week, group: systemic, systemic / in life observation / clinical signs / desquamation + systemic / in life observation / clinical signs / erythema + systemic / in …
[3] = tested on: rat; settings: Subchronic oral toxicity in rodents, sprague dawley, Feed, dose end: 90 day, group: systemic
[4] = tested on: rat; settings: Multigenerational reproductive toxicity study, sprague dawley, Oral, Feed, dose end: 2 generation
[5] = tested on: dog; settings: Chronic toxicity; beagle; Oral; Feed; dose end: 52 week; group: systemic; systemic / hematology / nucleated red blood cell (nrbc) / nucleated red blood cell (nrbc) + systemic / in life observation / clinical signs…
[6] = tested on: rat; settings: Subchronic oral toxicity in rodents, wistar, Feed, dose end: 90 day, group: systemic, systemic / in life observation / clinical signs / motor activity + systemic / organ weight / kidney / relative to body weight + systemic / …
[7] = tested on: rat; settings: Prenatal developmental toxicity study, Oral, Gavage/Intubation, dose end: 19 GD
[8] = tested on: rabbit; settings: Prenatal developmental toxicity study, new zealand white, Oral, Gavage/Intubation, dose end: 19 GD
[9] = tested on: dog; settings: Chronic toxicity, beagle, Oral, Feed, dose end: 53 week, group: systemic
[10] = tested on: rat; settings: Subchronic oral toxicity in rodents, sprague dawley, Feed, dose end: 3 month, group: systemic
[11] = tested on: rat; settings: Combined chronic toxicity/carcinogenicity; sprague dawley; Oral; Feed; dose end: 2 year; group: systemic; systemic / hematology / lymphocyte / lymphocyte + systemic / hematology / neutrophils / neutrophils + systemic / in life observation / body …
[12] = tested on: dog; settings: Chronic toxicity, beagle, Oral, Feed, dose end: 1 year, group: systemic
[13] = tested on: dog; settings: Subchronic oral toxicity in nonrodent, beagle, Feed, dose end: 13 week, group: systemic
[14] = tested on: rat; settings: Combined chronic toxicity/carcinogenicity, sprague dawley, Oral, Feed, dose end: 2 year, group: systemic
[15] = tested on: rat; settings: Prenatal developmental toxicity study, sprague dawley, Oral, Gavage/Intubation, dose end: 15 GD; remark: listed apart in the source
[16] = tested on: rat; settings: Multigenerational reproductive toxicity study, sprague dawley, Oral, Feed, dose end: 2 generation; remark: listed apart in the source
[17] = tested on: mouse; settings: Carcinogenicity; cd1; Oral; Feed; dose end: 18 month; group: systemic; systemic / pathology microscopic / adrenal gland / eosinophilic focus + systemic / pathology microscopic / liver / hypertrophy + systemic / …
[18] = tested on: mouse; settings: Combined chronic toxicity/carcinogenicity, cd1, Oral, Feed, dose end: 24 month, group: systemic
[19] = tested on: mouse; settings: Subchronic oral toxicity in rodents, cd1, Feed, dose end: 3 month, group: systemic
[20] = tested on: mouse; settings: Subchronic oral toxicity in rodents, b6c3f1, Gavage/Intubation, dose end: 13 week, group: systemic
[21] = tested on: rat; settings: Chronic toxicity, fischer, Oral, Gavage/Intubation, dose end: 1 year, group: systemic
[22] = tested on: rat; settings: Subchronic oral toxicity in rodents, fischer, Gavage/Intubation, dose end: 90 day, group: systemic, systemic / clinical chemistry / cholesterol / cholesterol + systemic / in life observation / food consumption / food consumption + systemic…
[23] = tested on: mouse; settings: Carcinogenicity; cd1; Oral; Gavage/Intubation; dose end: 104 week; group: systemic; systemic / pathology microscopic / gallbladder / adenoma + systemic / pathology microscopic / gallbladder / hemangioma + systemic / …
[24] = group: developmental, developmental / developmental malformation / bone / bent + systemic / in life observation / body weight / fetal weight
[25] = group: maternal, systemic / in life observation / body weight / body weight + systemic / in life observation / body weight / body weight gain + systemic / in…
[26] = systemic / clinical chemistry / alanine aminotransferase (alt/sgpt) / alanine aminotransferase (alt/sgpt)
[27] = systemic / pathology gross / stomach / discolored + systemic / pathology gross / stomach / foci + systemic / pathology gross / stomach / …
[28] = group: offspring, systemic / in life observation / body weight / offspring (pup) weight + systemic / pathology gross / heart / enlarged + systemic / pathology…
[29] = group: parental, systemic / in life observation / clinical signs / dental fluorosis
[30] = group: parental, systemic / in life observation / clinical signs / dental fluorosis + systemic / in life observation / clinical signs / teeth whitening
[31] = group: developmental, systemic / in life observation / body weight / fetal weight + developmental / developmental malformation / bone / unossified + developmental…
[32] = group: maternal, reproductive / reproductive performance / resorptions / resorptions + systemic / in life observation / body weight / body weight + systemic…
[33] = group: developmental, developmental / offspring survival late / viability index / viability index
[34] = systemic / pathology microscopic / liver / hypertrophy
[35] = systemic / pathology microscopic / liver / hypertrophy + systemic / clinical chemistry / alanine aminotransferase (alt/sgpt) / alanine …
[36] = systemic / clinical chemistry / hepatic mixed function oxidase (mfo) assay / hepatic mixed function oxidase (mfo) assay
[37] = systemic / organ weight / liver / relative to body weight
[38] = systemic / pathology microscopic / liver / hypertrophy + systemic / clinical chemistry / alkaline phosphatase (alp/alk) / alkaline …
[39] = systemic / organ weight / testes / nos + systemic / pathology microscopic / testes / atrophy
[40] = systemic / organ weight / testes / nos + systemic / pathology microscopic / testes / atrophy + systemic / in life observation / body weight…
[41] = group: developmental, developmental / developmental malformation / bone / cervical + developmental / developmental malformation / bone / short supernumerary
[42] = group: maternal, systemic / in life observation / clinical signs / fur (altered appearance) + systemic / in life observation / clinical signs / salivation
[43] = group: maternal, systemic / in life observation / clinical signs / fur (altered appearance) + systemic / in life observation / clinical signs / salivation + …
[44] = group: offspring, systemic / in life observation / body weight / offspring (pup) weight gain
[45] = group: offspring, systemic / in life observation / body weight / offspring (pup) weight gain + developmental / offspring survival late / viability index / …
[46] = group: parental, systemic / organ weight / liver / nos + systemic / organ weight / liver / relative to body weight + systemic / in life observation / food …
[47] = group: parental, systemic / organ weight / liver / nos + systemic / organ weight / liver / relative to body weight + systemic / pathology microscopic / liver…
[48] = group: reproductive, reproductive / offspring survival early / birth index / live birth index
[49] = systemic / clinical chemistry / hepatic mixed function oxidase (mfo) assay / hepatic mixed function oxidase (mfo) assay + systemic / …
[50] = systemic / pathology microscopic / adrenal gland / hypertrophy + systemic / pathology microscopic / liver / hypertrophy + systemic / …
[51] = systemic / clinical chemistry / fatty acids / fatty acid + systemic / pathology microscopic / bone marrow / hypocellularity + systemic / …
[52] = systemic / in life observation / body weight / body weight
[53] = systemic / in life observation / body weight / body weight + systemic / organ weight / adrenal gland / relative to body weight + systemic / …

## CCC(C)(C)c1ccc(O)cc1 [4-(2-Methylbutan-2-yl)phenol]
[1]; [24]
  LEL: 500 mg/kg/day
  LOAEL: 500 mg/kg/day
  NEL: 200 mg/kg/day
  NOAEL: 200 mg/kg/day
[1]; [25]
  LEL: 200 mg/kg/day
  LOAEL: 200 mg/kg/day
  NEL: 50 mg/kg/day
  NOAEL: 50 mg/kg/day
[2]
  LEL: 10 mg/kg/day
  LOAEL: 10 mg/kg/day
  NEL: 2.5 mg/kg/day
  NOAEL: 2.5 mg/kg/day

## [F][Al-3]([F])([F])([F])([F])[F].[Na+].[Na+].[Na+] [Cryolite]
[3]; [26]
  LEL: 4.5 mg/kg/day
  NEL: < 4.5 mg/kg/day
[3]; [27]
  LOAEL: 399 mg/kg/day
  NOAEL: 3.8 mg/kg/day
[4]; group: offspring, systemic / in life observation / body weight / offspring (pup) weight
  LOAEL: 128 mg/kg/day
[4]; [28]
  LEL: 128 mg/kg/day
  NEL: 42 mg/kg/day
  NOAEL: 42 mg/kg/day
[4]; [29]
  LOAEL: 14 mg/kg/day
  NOAEL: < 14 mg/kg/day
[4]; [30]
  LEL: 14 mg/kg/day
  NEL: < 14 mg/kg/day
[5]
  LEL: 95 mg/kg/day
  LOAEL: 95 mg/kg/day
  NEL: < 95 mg/kg/day
  NOAEL: < 95 mg/kg/day

## Cc1cc(Cl)ccc1OCC(=O)OCCCCCC(C)C [MCPA-isooctyl]
[6]
  LEL: 54 mg/kg/day
  LOAEL: 54 mg/kg/day
  NEL: 5 mg/kg/day
  NOAEL: 5 mg/kg/day
[7]; group: developmental, developmental / developmental malformation / bone / ossification sites
  LEL: 40 mg/kg/day
[7]; [31]
  LOAEL: 120 mg/kg/day
  NEL: 15 mg/kg/day
  NOAEL: 40 mg/kg/day
[7]; [32]
  LEL: 120 mg/kg/day
  LOAEL: 120 mg/kg/day
  NEL: 40 mg/kg/day
  NOAEL: 40 mg/kg/day

## CCCCC(C#N)(Cn1cncn1)c1ccc(Cl)cc1 (stereo not given) [Myclobutanil]
[8]; [33]
  LEL: 200 mg/kg/day
  LOAEL: 200 mg/kg/day
  NEL: 60 mg/kg/day
  NOAEL: 60 mg/kg/day
[8]; [32]
  LEL: 200 mg/kg/day
  LOAEL: 200 mg/kg/day
  NEL: 60 mg/kg/day
  NOAEL: 60 mg/kg/day
[9]; [34]
  LOAEL: 14.3 mg/kg/day
[9]; [35]
  NEL: 3.09 mg/kg/day
  NOAEL: 3.09 mg/kg/day
[9]; systemic / pathology microscopic / liver / hypertrophy + systemic / hematology / mean corpuscular hemoglobin (mch) / mean corpuscular …
  LEL: 14.3 mg/kg/day
[10]; [36]
  LEL: 15 mg/kg/day
  NEL: < 15 mg/kg/day
[10]; systemic / organ weight / kidney / nos + systemic / organ weight / liver / nos
  LOAEL: 150 mg/kg/day
[10]; systemic / organ weight / kidney / nos + systemic / organ weight / liver / nos + systemic / clinical chemistry / albumin-globulin ratio / …
  NOAEL: 50 mg/kg/day
[11]
  LEL: 125 mg/kg/day
  LOAEL: > 125 mg/kg/day
  NEL: < 125 mg/kg/day
  NOAEL: ≥ 125 mg/kg/day
[12]; [37]
  LEL: 0.4 mg/kg/day
  NEL: < 0.4 mg/kg/day
[12]; [34]
  LOAEL: 14.3 mg/kg/day
[12]; systemic / pathology microscopic / liver / hypertrophy + systemic / organ weight / liver / relative to body weight + systemic / organ weight…
  NOAEL: 3.09 mg/kg/day
[13]; [34]
  LOAEL: 5 mg/kg/day
[13]; [38]
  NEL: 0.25 mg/kg/day
  NOAEL: 0.25 mg/kg/day
[13]; systemic / pathology microscopic / liver / hypertrophy + systemic / pathology microscopic / kidney / inflammation
  LEL: 5 mg/kg/day
[14]; [39]
  LEL: 9.84 mg/kg/day
  LOAEL: 9.84 mg/kg/day
[14]; [40]
  NEL: 2.49 mg/kg/day
  NOAEL: 2.49 mg/kg/day
[15]; [41]
  LEL: 313 mg/kg/day
  LOAEL: 313 mg/kg/day
  NEL: 93.8 mg/kg/day
  NOAEL: 93.8 mg/kg/day
[15]; [42]
  LEL: 313 mg/kg/day
  LOAEL: 313 mg/kg/day
[15]; [43]
  NEL: 93.8 mg/kg/day
  NOAEL: 93.8 mg/kg/day
[16]; [44]
  NEL: 10 mg/kg/day
  NOAEL: 10 mg/kg/day
[16]; [45]
  LEL: 50 mg/kg/day
  LOAEL: 50 mg/kg/day
[16]; [46]
  NEL: 2.5 mg/kg/day
  NOAEL: 2.5 mg/kg/day
[16]; [47]
  LEL: 10 mg/kg/day
  LOAEL: 10 mg/kg/day
[16]; [48]
  LEL: 10 mg/kg/day
  LOAEL: 50 mg/kg/day
  NEL: 2.5 mg/kg/day
  NOAEL: 10 mg/kg/day
[17]
  LEL: 394 mg/kg/day
  LOAEL: 394 mg/kg/day
  NEL: < 394 mg/kg/day
  NOAEL: < 394 mg/kg/day
[18]; [36]
  LEL: 16.5 mg/kg/day
  LOAEL: 16.5 mg/kg/day
[18]; [49]
  NEL: 3.2 mg/kg/day
  NOAEL: 3.2 mg/kg/day
[19]; [50]
  LOAEL: 150 mg/kg/day
  NEL: 45 mg/kg/day
  NOAEL: 45 mg/kg/day
[19]; systemic / pathology microscopic / adrenal gland / hypertrophy + systemic / pathology microscopic / liver / necrosis + systemic / pathology …
  LEL: 150 mg/kg/day

## Cc1c(C)c2c(c(C)c1O)CCC(C)(COc1ccc(CC3SC(=O)NC3=O)cc1)O2 (stereo not given) [Troglitazone]
[20]; [51]
  LOAEL: > 1200 mg/kg/day
  NOAEL: ≥ 1200 mg/kg/day
[20]; [34]
  LEL: 50 mg/kg/day
  NEL: < 50 mg/kg/day
[21]; [52]
  LEL: 25 mg/kg/day
  NEL: < 25 mg/kg/day
[21]; [53]
  LOAEL: > 100 mg/kg/day
  NOAEL: ≥ 100 mg/kg/day
[22]
  LEL: 20 mg/kg/day
  LOAEL: > 2500 mg/kg/day
  NEL: < 20 mg/kg/day
  NOAEL: ≥ 2500 mg/kg/day
[23]
  LEL: 50 mg/kg/day
  LOAEL: > 50 mg/kg/day
  NEL: 4 mg/kg/day
  NOAEL: ≥ 50 mg/kg/day
